Laboratory results: US12059422B2 (MEI Pharma, Inc., priority 2011, dated 2024)

Legend:
PI3Kδ = target: T1, PI3Kδ (Homo sapiens, UniProt O00329); assay: ELISA assay for PI3Kδ: sandwich ELISA, phosphorylation of AKT (Thr308) in Raji cells; format: cell-based; details: for IC50: cellular, pAKT (Thr308), Raji cells, anti-Human IgM stimulation, read-out: IC50 p110δ; for α/δ ratio / β/δ ratio / γ/δ ratio: ratio of cellular IC50 values, Table 2
T1 construct: endogenous in cells; host or cells: Raji (ATCC #CCL-86)
T1 sequence (O00329 whole entry): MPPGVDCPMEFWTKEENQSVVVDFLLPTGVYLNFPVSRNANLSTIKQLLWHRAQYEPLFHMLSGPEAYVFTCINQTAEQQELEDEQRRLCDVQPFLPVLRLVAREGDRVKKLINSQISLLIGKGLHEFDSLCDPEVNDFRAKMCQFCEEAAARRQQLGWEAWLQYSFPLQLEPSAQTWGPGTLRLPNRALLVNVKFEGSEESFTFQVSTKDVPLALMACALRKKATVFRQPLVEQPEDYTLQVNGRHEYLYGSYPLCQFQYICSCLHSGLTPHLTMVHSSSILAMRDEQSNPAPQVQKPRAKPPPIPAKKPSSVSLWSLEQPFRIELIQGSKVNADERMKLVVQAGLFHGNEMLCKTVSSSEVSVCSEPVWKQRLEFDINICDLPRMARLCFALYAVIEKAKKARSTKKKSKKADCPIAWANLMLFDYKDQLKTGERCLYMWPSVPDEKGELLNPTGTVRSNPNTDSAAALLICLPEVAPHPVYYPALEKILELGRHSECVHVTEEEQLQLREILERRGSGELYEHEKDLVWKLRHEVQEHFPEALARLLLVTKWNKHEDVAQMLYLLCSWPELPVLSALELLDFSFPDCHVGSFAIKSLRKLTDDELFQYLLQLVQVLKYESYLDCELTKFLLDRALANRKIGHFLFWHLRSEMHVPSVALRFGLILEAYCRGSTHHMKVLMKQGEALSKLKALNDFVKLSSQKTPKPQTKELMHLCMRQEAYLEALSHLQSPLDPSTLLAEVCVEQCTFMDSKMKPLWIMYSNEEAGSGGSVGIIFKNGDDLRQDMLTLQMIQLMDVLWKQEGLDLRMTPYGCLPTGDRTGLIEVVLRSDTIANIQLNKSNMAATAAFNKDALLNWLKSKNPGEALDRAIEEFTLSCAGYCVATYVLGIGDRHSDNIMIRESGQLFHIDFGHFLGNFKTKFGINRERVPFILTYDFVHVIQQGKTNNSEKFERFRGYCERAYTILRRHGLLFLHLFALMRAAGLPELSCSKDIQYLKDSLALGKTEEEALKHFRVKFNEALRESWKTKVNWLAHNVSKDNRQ
T1 sequence (P27986 whole entry partner): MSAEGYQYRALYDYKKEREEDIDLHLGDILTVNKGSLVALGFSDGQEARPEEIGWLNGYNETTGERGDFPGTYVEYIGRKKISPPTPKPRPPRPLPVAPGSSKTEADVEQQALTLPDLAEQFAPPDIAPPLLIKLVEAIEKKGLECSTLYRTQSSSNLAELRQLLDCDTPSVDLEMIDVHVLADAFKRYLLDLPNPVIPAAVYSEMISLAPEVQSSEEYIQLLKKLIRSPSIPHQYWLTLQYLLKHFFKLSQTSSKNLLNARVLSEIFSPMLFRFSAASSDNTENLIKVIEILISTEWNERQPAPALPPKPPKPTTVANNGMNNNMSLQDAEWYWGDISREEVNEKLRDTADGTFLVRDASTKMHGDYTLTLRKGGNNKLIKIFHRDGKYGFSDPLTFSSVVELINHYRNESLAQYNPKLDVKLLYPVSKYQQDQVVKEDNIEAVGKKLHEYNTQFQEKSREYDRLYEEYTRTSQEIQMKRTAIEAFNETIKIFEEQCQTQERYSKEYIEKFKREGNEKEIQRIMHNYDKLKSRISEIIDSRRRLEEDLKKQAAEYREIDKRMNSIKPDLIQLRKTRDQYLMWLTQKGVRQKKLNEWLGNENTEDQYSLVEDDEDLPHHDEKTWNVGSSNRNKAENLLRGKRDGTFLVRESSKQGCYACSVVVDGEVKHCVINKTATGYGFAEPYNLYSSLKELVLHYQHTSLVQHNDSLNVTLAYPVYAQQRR
Summary of the method: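 Raji cells, serum-starved 2 hrs, treated with compound (10 concentrations) for 2 hrs at 37° C, then stimulated 30 min with anti-human IgM. Lysates analysed by sandwich ELISA for pAKT Thr308 and total AKT with luminescent read-out. IC50 from curve fitting.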

PI3K delta = target: T2, PI3K delta (Homo sapiens, UniProt O00329); assay: Luciferase-based luminescence assay (KinaseGlo), PI3K delta enzymatic activity; format: biochemical; details: for IC50: inhibition of enzymatic activity, KinaseGlo, 25 μM ATP, read-out: IC50 p110δ; for α/δ ratio: ratio of enzymatic IC50 against PI3Kα over IC50 against PI3Kδ; for β/δ ratio / γ/δ ratio: ratio of enzymatic IC50 values, Table 1
T2 construct: purchased Millipore, Billerica, MA, USA
T2 sequence (O00329 whole entry, species assumed): as the sequence (O00329 whole entry) above
T2 sequence (P27986 whole entry partner, species assumed): as the sequence (P27986 whole entry partner) above
Summary of the method: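 KinaseGlo luminescence measured ATP remaining after PIP2 (50 μM) phosphorylation with 25 μM ATP in HEPES pH 7.5 buffer with CHAPS and DTT. Final enzyme was 1.65 nM alpha (1 h reaction) or 6.86 nM delta (2 h reaction). IC50 was curve-fitted from 10 concentrations.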

mTOR = mTOR (Homo sapiens, UniProt P42345); assay: mTOR inhibition (Table 1); format: biochemical; details: Table 1, no method described

Row | SMILES | IC50 (PI3Kδ) [µM] | α/δ ratio (PI3Kδ) | β/δ ratio (PI3Kδ) | γ/δ ratio (PI3Kδ) | IC50 (PI3K delta) [µM] | α/δ ratio (PI3K delta) | β/δ ratio (PI3K delta) | γ/δ ratio (PI3K delta) | IC50 (mTOR) [µM]
1 | CC(C)(Cc1ccccc1C1CCNCC1)Nc1nc(N2CCOCC2)nc(-n2c(C(F)F)nc3ccccc32)n1 [Compound A68, 4-(2-(difluoromethyl)-1H-benzo[d]imidazol-1-yl)-N-(2-methyl-1-(2-(piperidin-4-yl)phenyl)propan-2-yl)-6-morpholino-1,3,5-triazin-2-amine] | ≤ 0.1 | A’ | A’ | A’ | ≤ 0.1 | A’ | A’ | A’ | > 0.5
2 | CCN1CCC(c2ccccc2CC(C)(C)Nc2nc(N3CCOCC3)nc(-n3c(C(F)F)nc4ccccc43)n2)CC1 [Compound A70, 4-(2-(difluoromethyl)-1H-benzo[d]imidazol-1-yl)-N-(1-(2-(1-ethylpiperidin-4-yl)phenyl)-2-methylpropan-2-yl)-6-morpholino-1,3,5-triazin-2-amine] | ≤ 0.1 | A’ | A’ | A’ | ≤ 0.1 | A’ | A’ | A’ | > 0.5
3 | CC(C)N1CCC(c2ccccc2CC(C)(C)Nc2nc(N3CCOCC3)nc(-n3c(C(F)F)nc4ccccc43)n2)CC1 [Compound A71, 4-(2-(difluoromethyl)-1H-benzo[d]imidazol-1-yl)-N-(1-(2-(1-isopropylpiperidin-4-yl)phenyl)-2-methylpropan-2-yl)-6-morpholino-1,3,5-triazin-2-amine] | ≤ 0.1 | A’ | A’ | A’ | ≤ 0.1 | A’ | A’ | A’ | > 0.5
4 | CC(=O)N1CCC(c2ccccc2CC(C)(C)Nc2nc(N3CCOCC3)nc(-n3c(C(F)F)nc4ccccc43)n2)CC1 [Compound A72, 4-(2-(difluoromethyl)-1H-benzo[d]imidazol-1-yl)-N-(2-methyl-1-(2-(1-acetylpiperidin-4-yl)phenyl)propan-2-yl)-6-morpholino-1,3,5-triazin-2-amine] | ≤ 0.1 | A’ | A’ | A’ | ≤ 0.1 | A’ | D’ | C’ | > 0.5
5 | CC(C)(Cc1ccccc1C1CCN(S(C)(=O)=O)CC1)Nc1nc(N2CCOCC2)nc(-n2c(C(F)F)nc3ccccc32)n1 [Compound A73, 4-(2-(difluoromethyl)-1H-benzo[d]imidazol-1-yl)-N-(2-methyl-1-(2-(1-(methylsulfonyl)piperidin-4-yl)phenyl)propan-2-yl)-6-morpholino-1,3,5-triazin-2-amine] | ≤ 0.1 | A’ | C’ | A’ | ≤ 0.1 | A’ | D’ | B’ | > 0.5
6 | CC(C)(Cc1ccccc1C1CCNC1)Nc1nc(N2CCOCC2)nc(-n2c(C(F)F)nc3ccccc32)n1 (stereo not drawn) [Compound A74, 4-(2-(difluoromethyl)-1H-benzo[d]imidazol-1-yl)-N-(2-methyl-1-(2-(pyrrolidin-3-yl)phenyl)propan-2-yl)-6-morpholino-1,3,5-triazin-2-amine] | ≤ 0.1 | A’ | C’ | A’ | ≤ 0.1 | A’ | A’ | A’ | > 0.5
7 | CN(C)CCCc1ccccc1CC(C)(C)Nc1nc(N2CCOCC2)nc(-n2c(C(F)F)nc3ccccc32)n1 [Compound A76, 4-(2-(difluoromethyl)-1H-benzo[d]imidazol-1-yl)-N-(1-(2-(3-(dimethylamino)propyl)phenyl)-2-methylpropan-2-yl)-6-morpholino-1,3,5-triazin-2-amine] | ≤ 0.1 | A’ | A’ | A’ | ≤ 0.1 | A’ | A’ | A’ | > 0.5

The next lines start with the values.

Row | IC50 (PI3Kδ) [µM] | α/δ ratio (PI3Kδ) | β/δ ratio (PI3Kδ) | γ/δ ratio (PI3Kδ) | IC50 (PI3K delta) [µM] | α/δ ratio (PI3K delta) | β/δ ratio (PI3K delta) | γ/δ ratio (PI3K delta) | IC50 (mTOR) [µM] | SMILES
8 | ≤ 0.1 | A’ | A’ | A’ | ≤ 0.1 | A’ | A’ | A’ | > 0.5 | CC(C)(Cc1ccccc1-c1cccnc1F)Nc1nc(N2CCOCC2)nc(-n2c(C(F)F)nc3ccccc32)n1 [Compound A62]
9 | ≤ 0.1 | A’ | A’ | A’ | ≤ 0.1 | A’ | A’ | A’ | > 0.5 | CC(C)(Cc1ccccc1-c1cncnc1)Nc1nc(N2CCOCC2)nc(-n2c(C(F)F)nc3ccccc32)n1 [Compound A63, 4-(2-(difluoromethyl)-1H-benzo[d]imidazol-1-yl)-N-(2-methyl-1-(2-(pyrimidin-5-yl)phenyl)propan-2-yl)-6-morpholino-1,3,5-triazin-2-amine]
10 | ≤ 0.1 | A’ | A’ | A’ | ≤ 0.1 | A’ | D’ | A’ | > 0.5 | CN1CCN(c2cc(-c3ccccc3CC(C)(C)Nc3nc(N4CCOCC4)nc(-n4c(C(F)F)nc5ccccc54)n3)ccn2)CC1 [Compound A64, 4-(2-(difluoromethyl)-1H-benzo[d]imidazol-1-yl)-N-(2-methyl-1-(2-(2-(4-methylpiperazin-1-yl)pyridin-4-yl)phenyl)propan-2-yl)-6-morpholino-1,3,5-triazin-2-amine]
11 | ≤ 0.1 | A’ | B’ | A’ | ≤ 0.1 | A’ | D’ | D’ | > 0.5 | CC(C)(Cc1ccccc1-c1cccc(CN2CCOCC2)c1)Nc1nc(N2CCOCC2)nc(-n2c(C(F)F)nc3ccccc32)n1 [Compound A65, 4-(2-(difluoromethyl)-1H-benzo[d]imidazol-1-yl)-N-(2-methyl-1-(3′-(morpholinomethyl)biphenyl-2-yl)propan-2-yl)-6-morpholino-1,3,5-triazin-2-amine]
12 | ≤ 0.1 | A’ | A’ | A’ | ≤ 0.1 | A’ | A’ | A’ | > 0.5 | COc1cccc(-c2ccccc2CC(C)(C)Nc2nc(N3CCOCC3)nc(-n3c(C(F)F)nc4ccccc43)n2)c1 [Compound A66, 4-(2-(difluoromethyl)-1H-benzo[d]imidazol-1-yl)-N-(1-(3′-methoxybiphenyl-2-yl)-2-methylpropan-2-yl)-6-morpholino-1,3,5-triazin-2-amine]
13 | ≤ 0.1 | A’ | A’ | A’ | ≤ 0.1 | A’ | B’ | A’ | > 0.5 | COc1ccc(-c2ccccc2CC(C)(C)Nc2nc(N3CCOCC3)nc(-n3c(C(F)F)nc4ccccc43)n2)cc1 [Compound A67, 4-(2-(difluoromethyl)-1H-benzo[d]imidazol-1-yl)-N-(1-(4′-methoxybiphenyl-2-yl)-2-methylpropan-2-yl)-6-morpholino-1,3,5-triazin-2-amine]
